Assay results from patent publication US20230183243A1, “HETEROARYL DERIVATIVES AND PHARMACEUTICAL COMPOSITION COMPRISING SAME AS ACTIVE INGREDIENT” (VORONOI INC., priority 2019, published 2023).

Key:
TTK = biological target: T1, TTK (Homo sapiens, UniProt P33981); assay: TTK enzyme activity, ADP-Glo kinase assay; assay type: biochemical; set-up: purchased SignalChem T20-10G; details: purified human TTK, ATP 10 μM, 25° C., 2 hours
T1 sequence (P33981 1-857): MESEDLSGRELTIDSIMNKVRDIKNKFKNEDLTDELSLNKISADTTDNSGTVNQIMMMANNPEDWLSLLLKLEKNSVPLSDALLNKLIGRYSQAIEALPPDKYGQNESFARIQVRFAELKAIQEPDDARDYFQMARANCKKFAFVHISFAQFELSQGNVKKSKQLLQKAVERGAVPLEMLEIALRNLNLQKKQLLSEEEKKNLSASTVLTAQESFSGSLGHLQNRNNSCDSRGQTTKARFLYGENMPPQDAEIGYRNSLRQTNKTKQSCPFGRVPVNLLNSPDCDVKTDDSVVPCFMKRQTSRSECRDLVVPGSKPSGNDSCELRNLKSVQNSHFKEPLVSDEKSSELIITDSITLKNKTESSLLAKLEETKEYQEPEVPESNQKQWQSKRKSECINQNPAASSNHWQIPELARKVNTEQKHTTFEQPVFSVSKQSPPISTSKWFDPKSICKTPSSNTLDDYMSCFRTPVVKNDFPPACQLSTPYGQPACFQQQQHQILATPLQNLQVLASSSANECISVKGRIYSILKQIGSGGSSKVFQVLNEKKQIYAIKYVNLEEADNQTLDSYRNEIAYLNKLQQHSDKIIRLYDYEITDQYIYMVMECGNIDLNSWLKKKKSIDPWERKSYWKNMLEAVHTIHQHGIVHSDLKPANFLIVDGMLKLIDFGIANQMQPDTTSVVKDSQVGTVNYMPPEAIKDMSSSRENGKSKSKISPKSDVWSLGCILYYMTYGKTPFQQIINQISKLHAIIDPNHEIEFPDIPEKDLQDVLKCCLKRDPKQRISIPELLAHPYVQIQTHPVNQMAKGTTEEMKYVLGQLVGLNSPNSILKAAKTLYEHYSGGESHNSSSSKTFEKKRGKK
In short: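 Purified human TTK (25 ng) incubated with 10 μM ATP and substrate (0.2 μg) for 2 h at 25 °C in Tris-HCl pH 7.4, MgCl2, BSA, DTT buffer. ADP formation read by ADP-Glo; inhibition calculated against untreated solvent control.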

SHP-77 = assay: Inhibition of proliferation of small cell lung cancer cells, CellTiter-Glo; assay type: cell-based; details: Homo sapiens, SHP77, 120 h; SHP-77, cultured for 5 days
Description: Specifically, the following test was performed to evaluate the inhibitory activity of the compound according to the present invention against the cell proliferation in the SCLC cells.
To check an inhibitory ability of cell growth in one SCLC cell line, a test was performed as follows. Cells were seeded in 180 μL of a culture broth at a density of 2,000 to 3,000 cells/well in a white clear bottom 96-well plate (Corning) according to the growth ability of each cell, and then cultured for 24 hours under conditions of 5% CO2 and 37° C. Thereafter, the compound was prepared by diluting a 10 mM stock solution three-fold with 100% DMSO at a total of 12 concentrations so that a peak concentration of the compound was in a range of 10 mM to 0.05 μM, and the diluted compound was then diluted in each cell culture medium so that a final concentration of the compound was in a range of 100 μM to 0.5 nM. 20 μL of a diluted solution diluted with a medium was added to the cell solution in which cells were seeded in the 96-well plate on the previous day so that a final concentration of the diluted solution was in a range of 10 μM to 0.05 nM. Each of the cells was cultured for 5 days. To check cell viability, a mixture provided in aCellTiter-Glo® Luminescent Cell Viability Assay Kit (Promega) was added to each of the cultured cell media, and cultured for another 10 minutes under a condition of 37° C. Then, a degree of luminescence (fluorescence) was measured. A degree of inhibition of the cell growth according to the treatment concentration of each of the compounds was calculated based on the fluorescence of the solvent control cells which were not treated with the compound. In this case, the concentration of each of the compounds inhibiting 50% of the cell growth was determined to be a GI50 (nM) value, and calculated using Prism (Version 7.01; GraphPad) software.

MDA-MB-231 cells = assay: Inhibition of proliferation of triple-negative breast cancer cells, CellTiter-Glo; assay type: cell-based; details: Homo sapiens, 120 h; MDA-MB-231, cultured for 5 days
In short: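 MDA-MB-231 cells pre-cultured 24 h (5% CO2, 37 °C), then exposed to compound for 5 days at 12 three-fold dilutions, final 10 μM to 0.05 nM. Viability read by CellTiter-Glo luminescence after 10 min at 37 °C; growth inhibition calculated relative to untreated solvent-control cells.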

SMILES	IC50 (TTK)	GI50 (SHP-77)	GI50 (MDA-MB-231 cells)
COc1cc(Nc2nc(NC3CCOC(C)(C)C3)c3c(C#N)c[nH]c3n2)ccc1-c1ccnn1C (stereo not drawn) [Example 162, 4-((2,2-dimethyltetrahydro-2H-pyran-4-yl)amino)-2-((3-methoxy-4-(1-methyl-1H-pyrazol-5-yl)phenyl)amino)-7H-pyrrolo[2,3-d] pyrimidine-5-carbonitrile]	< 50 nM	< 100 nM	< 100 nM
Cn1nccc1-c1ccc(Nc2nc(NC3CCCC3)c3c(C#N)c[nH]c3n2)c2c1OCCO2 [Example 38, 4-(cyclopentylamino)-2-((8-(1-methyl-1H-pyrazol-5-yl)-2,3-dihydrobenzo[b][1,4]dioxin-5-yl)amino)-7H-pyrrolo[2,3-d] pyrimidine-5-carbonitrile]	< 50 nM	< 100 nM	< 100 nM
COc1cc(-n2ccnc2C)ccc1Nc1nc(NC2CCOCC2)c2c(C#N)c[nH]c2n1 [Example 93, 2-((2-methoxy-4-(2-methyl-1H-imidazol-1-yl)phenyl)amino)-4-((tetrahydro-2H-pyran-4-yl)amino)-7H-pyrrolo[2,3-d] pyrimidine-5-carbonitrile]	< 50 nM	< 100 nM	< 100 nM
Cn1nccc1-c1ccc(Nc2nc(NC3C[C@H]4CC[C@@H]3C4)c3c(C#N)c[nH]c3n2)c2c1OCCO2 (stereo partly drawn) [Example 61, 4-(((1R,4S)-bicyclo[2.2.l]heptan-2-yl)amino)-2-((8-(1-methyl-1H-pyrazol-5-yl)-2,3-dihydrobenzo[b][1,4]dioxin-5-yl)amino)-7H-pyrrolo[2,3-d] pyrimidine-5-carbonitrile]	50 to 200 nM	< 100 nM	< 100 nM
Cn1nccc1-c1ccc(Nc2nc(C3=CCCCC3)c3c(C#N)c[nH]c3n2)c2c1OCCO2 [Example 130, 4-(cyclohex-1-en-1-yl)-2-((8-(1-methyl-1H-pyrazol-5-yl)-2,3-dihydrobenzo[b][1,4]dioxin-5-yl)amino)-7H-pyrrolo[2,3-d] pyrimidine-5-carbonitrile]	50 to 200 nM	100 to 1000 nM	100 to 1000 nM
COc1cc(-c2ccnn2C)c(F)cc1Nc1nc(NC2CCOCC2)c2c(C#N)c[nH]c2n1 [Example 122, 2-((5-fluoro-2-methoxy-4-(1-methyl-1H-pyrazol-5-yl)phenyl)amino)-4-((tetrahydro-2H-pyran-4-yl)amino)-7H-pyrrolo[2,3-d] pyrimidine-5-carbonitrile]	< 50 nM	< 100 nM	< 100 nM
COCCNc1nc(Nc2ccc(-c3cnn(C)c3)cc2OC)nc2[nH]cc(C#N)c12 [Example 97, 2-((2-methoxy-4-(1-methyl-1H-pyrazol-4-yl)phenyl)amino)-4-((2-methoxyethyl)amino)-7H-pyrrolo[2,3-d] pyrimidine-5-carbonitrile]	< 50 nM	< 100 nM	< 100 nM
Cn1nccc1-c1ccc(Nc2nc(NCC3CCC3)c3c(C#N)c[nH]c3n2)c2c1OCCO2 [Example 100, 4-((cyclobutylmethyl)amino)-2-((8-(1-methyl-1H-pyrazol-5-yl)-2,3-dihydrobenzo[b][1,4]dioxin-5-yl)amino)-7H-pyrrolo[2,3-d] pyrimidine-5-carbonitrile]	50 to 200 nM	< 100 nM	< 100 nM
CN(C)S(=O)(=O)CCNc1nc(Nc2ccc(-c3ccnn3C)c3c2OCCO3)nc2[nH]cc(C#N)c12 [Example 85, 2-((5-cyano-2-((8-(1-methyl-1H-pyrazol-5-yl)-2,3-dihydrobenzo[b][1,4]dioxin-5-yl)amino)-7H-pyrrolo[2,3-d]pyrimidin-4-yl)amino)-N,N-dimethylethane-1-sulfonamide]	< 50 nM	< 100 nM	100 to 1000 nM
COc1cc(Nc2nc(NC3CCCCC3)c3c(C#N)c[nH]c3n2)ccc1-c1cnn(C)c1 [Example 137, 4-(cyclohexylamino)-2-((3-methoxy-4-(1-methyl-1H-pyrazol-4-yl)phenyl)amino)-7H-pyrrolo[2,3-d] pyrimidine-5-carbonitrile]	50 to 200 nM	< 100 nM	< 100 nM
COc1cc(-c2c(C)noc2C)c(F)cc1Nc1nc(NC2CCCC2)c2c(C#N)c[nH]c2n1 [Example 104, 4-(cyclopentylamino)-2-((4-(3,5-dimethylisoxazol-4-yl)-5-fluoro-2-methoxyphenyl)amino)-7H-pyrrolo[2,3-d] pyrimidine-5-carbonitrile]	50 to 200 nM	100 to 1000 nM	100 to 1000 nM
COc1cc(-c2ccnn2C)c(F)cc1Nc1nc(NC2CCCCC2)c2c(C#N)c[nH]c2n1 [Example 105, 4-(cyclohexylamino)-2-((5-fluoro-2-methoxy-4-(1-methyl-1H-pyrazol-5-yl)phenyl)amino)-7H-pyrrolo[2,3-d] pyrimidine-5-carbonitrile]	50 to 200 nM	100 to 1000 nM	100 to 1000 nM
Cn1nccc1-c1ccc(Nc2nc(NCCS(C)(=O)=O)c3c(C#N)c[nH]c3n2)c2c1OCCO2 [Example 84, 2-((8-(1-methyl-1H-pyrazol-5-yl)-2,3-dihydrobenzo[b][1,4]dioxin-5-yl)amino)-4-((2-(methylsulfonyl)ethyl)amino)-7H-pyrrolo[2,3-d] pyrimidine-5-carbonitrile]	< 50 nM	> 1000 nM	> 1000 nM
COc1cc(N2CCCCS2(=O)=O)ccc1Nc1nc(NC2CCCC2)c2c(C#N)c[nH]c2n1 [Example 155, 4-(cyclopentylamino)-2-((4-(1,1-dioxido-1,2-thiazinan-2-yl)-2-methoxyphenyl)amino)-7H-pyrrolo[2,3-d] pyrimidine-5-carbonitrile]	< 50 nM	< 100 nM	< 100 nM
COc1cc(-c2ccnn2C)ccc1Nc1nc(NC2CCCC2)c2cc[nH]c2n1 [Example 113, N^4-cyclopentyl-N^2-(2-methoxy-4-(1-methyl-1H-pyrazol-5-yl)phenyl)-7H-pyrrolo[2,3-d] pyrimidine-2,4-diamine]	50 to 200 nM	100 to 1000 nM	100 to 1000 nM
COc1cc(-c2c(C)noc2C)c(F)cc1Nc1nc(NC2CCCCC2)c2c(C#N)c[nH]c2n1 [Example 123, 4-(cyclohexylamino)-2-((4-(3,5-dimethylisoxazol-4-yl)-5-fluoro-2-methoxyphenyl)amino)-7H-pyrrolo[2,3-d] pyrimidine-5-carbonitrile]	50 to 200 nM	100 to 1000 nM	> 1000 nM
COc1cc(-c2c(C)noc2C)ccc1Nc1nc(NC2CCCCCC2)c2c(C#N)c[nH]c2n1 [Example 149, 4-(cycloheptylamino)-2-((4-(3,5-dimethylisoxazol-4-yl)-2-methoxyphenyl)amino)-7H-pyrrolo[2,3-d] pyrimidine-5-carbonitrile]	50 to 200 nM	< 100 nM	< 100 nM
COc1cc(-c2ccnn2C)ccc1Nc1nc(NC2CCCC2)c2c(C(F)(F)F)c[nH]c2n1 [Example 132, N^4-cyclopentyl-N^2-(2-methoxy-4-(1-methyl-1H-pyrazol-5-yl)phenyl)-5-(trifluoromethyl)-7H-pyrrolo[2,3-d] pyrimidine-2,4-diamine]	50 to 200 nM	100 to 1000 nM	100 to 1000 nM
